Measurements from patent publication US8933016B2, “Metallodrugs having improved pharmacological properties and methods of manufacture and use thereof” (priority 2012, dated 2015).
Values after ≈ are worked out from the molar mass of the structure shown. Read-outs that look alike come from different tables or passages of the source. Ends that are not written are not given here. Peptide text beside a SMILES is read from it. * marks the point of attachment. X4 = COCCOCCOCCOCCOCCOCCOCCOCCOCCOCCOCCOCCOCCOCCOCCOCCOCCOCCOCCOCCOCCOCCOCCOCCOCCOCCOCCOCCOCCOCCOCCOCCOCCOCCOCCOCCOCCOCCOCCOCCOCCOCCOCCOCCOCCOCCOCCOCCNC(=O)CCN1C(=O)CC(*)C1=O; X3 = COCCOCCOCCOCCOCCOCCOCCOCCOCCOCCOCCOCCOCCOCCOCCOCCOCCOCCOCCOCCOCCOCCOCCOCCOCCOCCOCCOCCOCCOCCOCCOCCOCCOCCOCCOCCNC(=O)CCN1C(=O)CC(*)C1=O; X2 = COCCOCCOCCOCCOCCOCCOCCOCCOCCOCCOCCOCCOCCOCCOCCOCCOCCOCCOCCOCCOCCOCCOCCOCCNC(=O)CCN1C(=O)CC(*)C1=O; X1 = COCCOCCOCCOCCOCCOCCOCCOCCOCCOCCOCCOCCNC(=O)CCN1C(=O)CC(*)C1=O

How the values were obtained:
[1] = test system: K. pneumonia, 700603 (Kp); type: cell-based; conditions: Mueller Hinton Broth
[2] = test system: A. baumanii, BAA-747 (Ab)
[3] = test system: H. influenzae, 49247 (Hi)
[4] = test system: E. coli O157:H7, BAA-1883 (Ec F)
MRSA, 43300 = conditions: Mueller Hinton Broth
[5] = test system: S. pneumoniae, 49619 (Sp)
E. faecium, 700221 (Ef) = conditions: Mueller Hinton Broth
in vitro = conditions: human
E. coli (ATCC 25922) = assay: Protein oxidation, quantitation of protein carbonyls in E. coli; type: cell-based; conditions: 100 mM
[6] = Cytotoxicity toward human Huh7 liver cells

GGHTRQARRNRR [PEP 205, GGHTRQARRNRR]
MIC Pa (P. aeuginosa, 27583 (Pa)): 43.7 µM

GGHGWRWYCRGGK [PEP 323, GGHGWRWYCRGGK]
MIC Kp [1]: 20.9 µM | MIC Pa (P. aeuginosa, 27583 (Pa)): 20.9 µM | MIC Ec (E. coli, 25922 (Ec); 25922 (Ec)): 20.9 µM | MIC Ab ([2]; BAA-747): 20.9 µM | MIC Hi [3]: 1.5 µM

GGHGRRWKIVVIRWRRGGC [PEP 321, GGHGRRWKIVVIRWRRGGC]
MIC Kp [1]: 14.2 µM | MIC Ab ([2]; Mueller Hinton Broth): 28.4 µM | MIC Ec F ([4]; Mueller Hinton Broth): 14.2 µM | MIC MRSA (MRSA, 43300): 14.2 µM | MIC Hi [3]: 14.2 µM | MIC Sp ([5]; Mueller Hinton Broth): 1.8 µM | MIC Ef (E. faecium, 700221 (Ef)): 7.1 µM

GGHIRRIIRKIIHIIKKGGC [PEP 318]
MIC Sa (S. aureus, 29213 (Sa); 29213 (Sa)): 14.1 µM | MIC Kp [1]: 28.2 µM | MIC Pa (P. aeuginosa, 27583 (Pa)): 28.2 µM | MIC Ec (E. coli, 25922 (Ec); 25922 (Ec)): 7 µM | MIC Ab ([2]; BAA-747): 7 µM | IC50 (in vitro): 41 µM | MIC Sp ([5]; 49619 (Sp)): 3.5 µM

GGHGEYVLRNWRIVKVATTKAC [PEP 193]
MIC MRSA (MRSA, 43300): 13 µM

CC[C@H](C)[C@H](NC(=O)[C@H](Cc1c[nH]cn1)NC(=O)CNC(=O)CN)C(=O)N[C@@H](CC(C)C)C(=O)N1CCC[C@H]1C(=O)N[C@@H](Cc1c[nH]c2ccccc12)C(=O)N[C@@H](CCCCN)C(=O)N[C@@H](Cc1c[nH]c2ccccc12)C(=O)N1CCC[C@H]1C(=O)N[C@@H](Cc1c[nH]c2ccccc12)C(=O)N[C@@H](Cc1c[nH]c2ccccc12)C(=O)N1CCC[C@H]1C(=O)N[C@@H](Cc1c[nH]c2ccccc12)C(=O)N[C@@H](CCCNC(=N)N)C(=O)N[C@@H](CCCNC(=N)N)C(=O)NCC(=O)NCC(=O)N[C@@H](CS)C(=O)O [PEP 316, GGHILPWKWPWWPWRRGGC]
MIC Hi [3]: 13.5 µM (≈ 32.1 µg/mL)

OO [H2O2, Hydrogen Peroxide]
Protein Carbonyls (nmol/mg protein) (E. coli (ATCC 25922); 2 hours (PEP 188 table)): 0.87 nmol/mg protein | Protein Carbonyls (nmol/mg protein) (E. coli (ATCC 25922); 2 hours, average of 2 separate experiments (PEP 189 table)): 0.44 nmol/mg protein

CC[C@H](C)[C@H](NC(=O)[C@H](CCCCN)NC(=O)[C@H](Cc1c[nH]c2ccccc12)NC(=O)[C@H](CCCNC(=N)N)NC(=O)[C@H](CCCNC(=N)N)NC(=O)[C@H](Cc1c[nH]cn1)NC(=O)CNC(=O)CN)C(=O)N[C@H](C(=O)N[C@H](C(=O)N[C@H](C(=O)N[C@@H](CCCNC(=N)N)C(=O)N[C@@H](Cc1c[nH]c2ccccc12)C(=O)N[C@@H](CCCNC(=N)N)C(=O)N[C@@H](CCCNC(=N)N)C(=O)NCC(=O)NCC(=O)N[C@@H](CSC1CC(=O)N(CCC(=O)NCCOCCOCCOCCOCCOCCOCCOCCOCCOCCOCCOCCOCCOCCOCCOCCOCCOCCOCCOCCOCCOCCOCCOCCOC)C1=O)C(=O)O)[C@@H](C)CC)C(C)C)C(C)C (stereo partly drawn) [PEP 314 PEG 24] (H-GGHRRWKIVVIRWRRGGC(X2)-OH; C-terminus assumed)
MIC Ec F ([4]; O157:H7): 9.3 µM (≈ 31.9 µg/mL) | MIC Sp ([5]; 49619 (Sp)): 4.7 µM (≈ 16.1 µg/mL) | IC50 [6]: > 200 µM

GGHRRWKIVVIRWRRGGC [PEP 314, GGHRRWKIVVIRWRRGGC]
MIC Sa (S. aureus, 29213 (Sa); 29213 (Sa)): 29.2 µM | MIC Kp [1]: 14.6 µM | MIC Pa (P. aeuginosa, 27583 (Pa)): 14.6 µM | MIC Ec (E. coli, 25922 (Ec); 25922 (Ec)): 14.6 µM | MIC Ab ([2]; BAA-747): 7.3 µM | MIC Hi [3]: 3.7 µM | IC50 (in vitro): 17 µM | MIC Sp ([5]; 49619 (Sp)): 0.9 µM

GGHWRWYCRGGK [PEP 322, GGHWRWYCRGGK]
MIC Kp [1]: 7.6 µM | MIC Hi [3]: 2.7 µM

CC[C@H](C)[C@H](NC(=O)[C@H](Cc1c[nH]cn1)NC(=O)CNC(=O)CN)C(=O)N[C@@H](CCCNC(=N)N)C(=O)N[C@@H](CCCNC(=N)N)C(=O)N[C@H](C(=O)N[C@H](C(=O)N[C@@H](CCCNC(=N)N)C(=O)N[C@@H](CCCCN)C(=O)N[C@H](C(=O)N[C@H](C(=O)N[C@@H](Cc1c[nH]cn1)C(=O)N[C@H](C(=O)N[C@H](C(=O)N[C@@H](CCCCN)C(=O)N[C@@H](CCCCN)C(=O)NCC(=O)NCC(=O)N[C@@H](CSC1CC(=O)N(CCC(=O)NCCOCCOCCOCCOCCOCCOCCOCCOCCOCCOCCOCCOCCOCCOCCOCCOCCOCCOCCOCCOCCOCCOCCOCCOC)C1=O)C(=O)O)[C@@H](C)CC)[C@@H](C)CC)[C@@H](C)CC)[C@@H](C)CC)[C@@H](C)CC)[C@@H](C)CC (stereo partly drawn) [PEP 318 PEG 24] (H-GGHIRRIIRKIIHIIKKGGC(X2)-OH; C-terminus assumed)
MIC Ec (E. coli, 25922 (Ec); 25922 (Ec)): 9.1 µM (≈ 31.9 µg/mL) | MIC Ab ([2]; BAA-747): 9.1 µM (≈ 31.9 µg/mL) | MIC Ec F ([4]; O157:H7): 18.2 µM (≈ 63.9 µg/mL) | IC50 [6]: > 200 µM

DOTA-Ampicillin [DOTAMP]
MIC Ec (E. coli, 25922 (Ec); Mueller Hinton Broth): 42.5 µM | MIC Ec F ([4]; Mueller Hinton Broth): 42.5 µM | MIC MRSA (MRSA, 43300): 42.5 µM

CC[C@H](C)[C@H](NC(=O)[C@H](CCCCN)NC(=O)[C@H](Cc1c[nH]c2ccccc12)NC(=O)[C@H](CCCNC(=N)N)NC(=O)[C@H](CCCNC(=N)N)NC(=O)[C@H](Cc1c[nH]cn1)NC(=O)CNC(=O)CN)C(=O)N[C@H](C(=O)N[C@H](C(=O)N[C@H](C(=O)N[C@@H](CCCNC(=N)N)C(=O)N[C@@H](Cc1c[nH]c2ccccc12)C(=O)N[C@@H](CCCNC(=N)N)C(=O)N[C@@H](CCCNC(=N)N)C(=O)NCC(=O)NCC(=O)N[C@@H](CSC1CC(=O)N(CCC(=O)NCCOCCOCCOCCOCCOCCOCCOCCOCCOCCOCCOCCOCCOCCOCCOCCOCCOCCOCCOCCOCCOCCOCCOCCOCCOCCOCCOCCOCCOCCOCCOCCOCCOCCOCCOCCOC)C1=O)C(=O)O)[C@@H](C)CC)C(C)C)C(C)C (stereo partly drawn) [PEP 314 PEG 36] (H-GGHRRWKIVVIRWRRGGC(X3)-OH; C-terminus assumed)
MIC Sp ([5]; 49619 (Sp)): 8.1 µM (≈ 32.1 µg/mL) | IC50 [6]: > 200 µM

GGHGIRRIIRKIIHIIKKGGC [PEP 311]
MIC Sa (S. aureus, 29213 (Sa); Mueller Hinton Broth): 7.9 µM | MIC Kp [1]: 7.9 µM | MIC Pa (P. aeuginosa, 27583 (Pa); Mueller Hinton Broth): 15.8 µM | MIC Ec (E. coli, 25922 (Ec); Mueller Hinton Broth): 7.9 µM | MIC Ab ([2]; Mueller Hinton Broth): 2 µM | MIC Ec F ([4]; Mueller Hinton Broth): 4 µM | MIC Hi [3]: 31.7 µM | MIC Sp ([5]; Mueller Hinton Broth): 15.8 µM | MIC Ef (E. faecium, 700221 (Ef)): 4 µM

GGHGWRWYCR [PEP 204, GGHGWRWYCR]
MIC Kp [1]: 4.7 µM | MIC Pa (P. aeuginosa, 27583 (Pa); Mueller Hinton Broth): 25 µM | MIC Ec (E. coli, 25922 (Ec); Mueller Hinton Broth): 3.1 µM | MIC Ab ([2]; Mueller Hinton Broth): 25.1 µM | MIC Ec F ([4]; Mueller Hinton Broth): 50 µM | MIC MRSA (MRSA, 43300): 6.3 µM | MIC Ef (E. faecium, 700221 (Ef)): 25.1 µM

CC[C@H](C)[C@H](NC(=O)[C@H](CCCCN)NC(=O)[C@H](Cc1c[nH]c2ccccc12)NC(=O)[C@H](CCCNC(=N)N)NC(=O)[C@H](CCCNC(=N)N)NC(=O)[C@H](Cc1c[nH]cn1)NC(=O)CNC(=O)CN)C(=O)N[C@H](C(=O)N[C@H](C(=O)N[C@H](C(=O)N[C@@H](CCCNC(=N)N)C(=O)N[C@@H](Cc1c[nH]c2ccccc12)C(=O)N[C@@H](CCCNC(=N)N)C(=O)N[C@@H](CCCNC(=N)N)C(=O)NCC(=O)NCC(=O)N[C@@H](CSC1CC(=O)N(CCC(=O)NCCOCCOCCOCCOCCOCCOCCOCCOCCOCCOCCOCCOCCOCCOCCOCCOCCOCCOCCOCCOCCOCCOCCOCCOCCOCCOCCOCCOCCOCCOCCOCCOCCOCCOCCOCCOCCOCCOCCOCCOCCOCCOCCOCCOCCOCCOCCOCCOC)C1=O)C(=O)O)[C@@H](C)CC)C(C)C)C(C)C (stereo partly drawn) [PEP 314 PEG 48] (H-GGHRRWKIVVIRWRRGGC(X4)-OH; C-terminus assumed)
MIC Sp ([5]; 49619 (Sp)): 7.1 µM (≈ 31.9 µg/mL) | IC50 [6]: > 200 µM

CC[C@H](C)[C@H](NC(=O)[C@H](Cc1c[nH]cn1)NC(=O)CNC(=O)CN)C(=O)N[C@@H](CCCNC(=N)N)C(=O)N[C@@H](CCCNC(=N)N)C(=O)N[C@H](C(=O)N[C@H](C(=O)N[C@@H](CCCNC(=N)N)C(=O)N[C@@H](CCCCN)C(=O)N[C@H](C(=O)N[C@H](C(=O)N[C@@H](Cc1c[nH]cn1)C(=O)N[C@H](C(=O)N[C@H](C(=O)N[C@@H](CCCCN)C(=O)N[C@@H](CCCCN)C(=O)NCC(=O)NCC(=O)N[C@@H](CSC1CC(=O)N(CCC(=O)NCCOCCOCCOCCOCCOCCOCCOCCOCCOCCOCCOCCOC)C1=O)C(=O)O)[C@@H](C)CC)[C@@H](C)CC)[C@@H](C)CC)[C@@H](C)CC)[C@@H](C)CC)[C@@H](C)CC (stereo partly drawn) [PEP 318 PEG 12] (H-GGHIRRIIRKIIHIIKKGGC(X1)-OH; C-terminus assumed)
MIC Kp [1]: 21.4 µM (≈ 63.8 µg/mL) | MIC Ec (E. coli, 25922 (Ec); 25922 (Ec)): 10.7 µM (≈ 31.9 µg/mL) | MIC Ab ([2]; BAA-747): 5.4 µM (≈ 16.1 µg/mL) | MIC Ec F ([4]; O157:H7): 5.4 µM (≈ 16.1 µg/mL) | MIC Hi [3]: 2.7 µM (≈ 8.05 µg/mL) | MIC Sp ([5]; 49619 (Sp)): 5.4 µM (≈ 16.1 µg/mL) | MIC Bc (B. cepacia, 25416 (Bc)): 2.7 µM (≈ 8.05 µg/mL) | IC50 [6]: 150 µM
